Measurements published in patent publication US20260265334A1, “STAPLED PEPTIDES” (THE FLOREY INSTITUTE OF NEUROSCIENCE AND MENTAL HEALTH, priority 2023, published 2026).
Bridge positions count the residues as written; N and C are the ends. Square brackets hold non-standard residues; d marks the D form. Ends that are not written are not given here. Peptide text beside a SMILES is read from it. I, II: the chains in the order shown. ξ: configuration not given here. αMeF = C[C@](N)(Cc1ccccc1)C(=O)O; ξF = NC(Cc1ccccc1)C(=O)O

Experiments:
RXFP4 [1] = biological target: T1, RXFP4 (Homo sapiens, UniProt Q8TDU9); assay: SmBiT-R3/I5 NanoBiT competition binding assay, HEK-LgBiT-RXFP4 membrane fractions; parameters: expressed in transfected cells; conditions: RXFP4, 2 nM SmBiT-R3/I5; Table 5; read-out: SmBiT R3/I5 pKi (converted)
Method: Furthermore, a SmBiT-R3/15 competition binding assay was performed. All peptides were examined for their binding affinity to RXFP4 utilizing a competition NanoLuc® Binary Technology (NanoBiT™) binding assay. Briefly, HEK-LgBiT-RXFP4 crude membrane fractions (25 μg protein) were incubated with 2 nM SmBiT-R3/15 and increasing concentrations of competing peptides in binding buffer (0.5% BSA, 20 mM HEPES pH 7.5, 1.5 mM CaCl2), 50 mM NaCl) in a total of 100 μL in 96-well Optiplates (PerkinElmer, Waltham MA, USA). After 1 hour of shaking at room temperature, 1.25 μM final concentration of coelenterazine 400a was added, and luminescence measurements were recorded using a MicroBeta Microplate Counter (PerkinElmer, Waltham MA, USA). Each concentration-response curve was tested in triplicate, and each experiment was repeated at least three times with data being expressed as the mean±standard error of the mean (S.E.M) % specific.

RXFP4 [2] = biological target: T1, RXFP4; assay: Eu-R3/I5 competition binding assay in CHO-K1-RXFP4 cells; parameters: expressed in transfected cells; conditions: for Ki: read-out: Eu-R3/I5 pKi (converted)
Method: An Eu-R3/15 competition binding assay in CHO-K1-RXFP4 cells was carried out.
(§1) Competition binding curves for each peptide were performed in triplicate and each experiment was performed independently at least three times. Fluorescent measurements were carried out at excitation of 340 nm and emission of 614 nm on a BMG POLARstar plate reader (BMG Labtech, Melbourne, Australia). Pooled data were presented as mean±S.E.M. of specific binding and are fitted using a one-site binding curve in GraphPad Prism version 8 (GraphPad Inc., San Diego, USA). Statistical analyses were conducted using one-way analysis of variance with uncorrected Fisher's least significant difference (LSD) post-hoc analysis in GraphPad Prism version 9.
(§2) An additional analogue of INSL5 was utilised as a control, INSL5-A13, having an A chain (SEQ ID NO: 9) and a B chain (SEQ ID NO: 10) with a first disulfide bond between Cys 1 of the A chain and Cys 7 of the B chain, and a second disulfide bond between Cys 14 of the A chain and Cys 19 of the B chain:
(§3) Competition binding and cAMP activity assay were conducted by a procedure analogous to that described above for Example 3. The results are shown in FIG. 24 (RXFP3) and FIG. 25 (RXFP4).

RXFP4 [3] = biological target: T1, RXFP4; assay: Inhibition of forskolin-induced cAMP activity in CHO-K1-RXFP4 cells (pCRE β-galactosidase reporter); type: cell-based; parameters: expressed in transfected cells; conditions: for EC50: RXFP4, Table 5, read-out: cAMP pEC50 (converted); for cAMP pEC50: RXFP4, CHO-K1-RXFP4 cells, 1 μM forskolin, 6 hours, Table 3
Method: For agonist assays, cells were stimulated with forskolin (5 μM for RXFP3, 1 μM for RXFP4)±increasing concentrations of each peptide for 6 hours. Data were expressed as the % forskolin activity, whereby 100% was defined as forskolin alone and 0% as maximum agonist stimulation (1 μM Analogue 2 for RXFP3 and 1 μM Analogue 13 for RXFP4). Data were analysed and plotted using GraphPad Prism 9 and are expressed as the mean±SEM of the pooled data. Statistical analysis was conducted using one-way ANOVA with Uncorrected Fisher's LSD post-hoc analysis using GraphPad Prism 9.
as §2, §3

RXFP3 [4] = biological target: T2, RXFP3 (Homo sapiens, UniProt Q9NSD7); assay: Inhibition of forskolin-induced cAMP activity in CHO-K1-RXFP3 cells (pCRE β-galactosidase reporter); type: cell-based; conditions: 5 μM forskolin, 6 hours, Table 2, read-out: cAMP pEC50 (converted)
T2 construct: expressed in transfected cells
T2 sequence (Q9NSD7 1-469): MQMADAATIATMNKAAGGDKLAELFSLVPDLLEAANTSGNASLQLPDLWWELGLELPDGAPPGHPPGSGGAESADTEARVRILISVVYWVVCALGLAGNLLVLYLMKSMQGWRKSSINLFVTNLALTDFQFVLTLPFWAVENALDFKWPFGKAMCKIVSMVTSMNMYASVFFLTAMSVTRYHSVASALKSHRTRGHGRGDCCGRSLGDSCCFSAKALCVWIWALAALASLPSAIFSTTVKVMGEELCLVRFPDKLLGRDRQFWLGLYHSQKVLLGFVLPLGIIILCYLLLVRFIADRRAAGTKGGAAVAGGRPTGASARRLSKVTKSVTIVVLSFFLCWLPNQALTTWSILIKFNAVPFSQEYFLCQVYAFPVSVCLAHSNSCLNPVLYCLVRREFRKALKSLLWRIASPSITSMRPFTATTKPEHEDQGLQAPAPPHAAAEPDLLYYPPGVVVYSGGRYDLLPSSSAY
Method: Since RXFP3 is coupled to Gi/o proteins, peptides were tested for their ability to activate RXFP3 as measured via their ability to inhibit forskolin-induced cAMP activity in CHO-K1-RXFP3 or CHO-K1-RXFP4 cells transfected with a pCRE (cAMP Response Element) β-galactosidase reporter plasmid (as described in Belgi, A et al., Structure and function relationship of murine insulin-like peptide 5 (INSL5): free C-terminus is essential for RXFP4 receptor binding and activation. Biochemistry 2011, 50 (39), 8352-61; and Haugaard-Kedstrom, L. M et al., Synthesis and pharmacological characterization of a europium-labelled single-chain antagonist for binding studies of the relaxin-3 receptor RXFP3. Amino Acids 2015, 47 (6), 1267-71). For agonist assays, cells were stimulated with forskolin (5 μM for RXFP3, 1 μM for RXFP4)±increasing concentrations of each peptide for 6 hours. Data were expressed as the % forskolin activity, whereby 100% was defined as forskolin alone and 0% as maximum agonist stimulation (1 μM Analogue 2 for RXFP3 and 1 μM Analogue 13 for RXFP4). Data were analysed and plotted using GraphPad Prism 9 and are expressed as the mean±SEM of the pooled data. Statistical analysis was conducted using one-way ANOVA with Uncorrected Fisher's LSD post-hoc analysis using GraphPad Prism 9.
as §3

RXFP3 [5] = biological target: T2, RXFP3; assay: Eu-H3B1-22R competition binding assay in CHO-K1-RXFP3 cells; conditions: 5 nM Eu-H3B1-22R, mean ± SEM (n), Table 2, read-out: Eu-H3B1-22R pKi (converted)
Method: An Eu-H3B1-22R competition binding assay was conducted in CHO-K1-RXFP3 cells.
as §1, §3

[6] = In vitro serum stability in human serum at 37° C.; conditions: serum
[7] = biological target: RXFP3 (relaxin family peptide receptor 3) on CHO-K1-RXFP3 cells (UniProt Q9NSD7); assay: competition with 5 nM Eu-H3B1-22R on CHO-K1-RXFP3 cells
[8] = biological target: RXFP4 (relaxin family peptide receptor 4) on CHO-K1-RXFP4 cells (UniProt Q8TDU9); assay: competition with 5 nM Eu-DTPA-R3/I5 on CHO-K1-RXFP4 cells
[9] = biological target: RXFP4 (relaxin family peptide receptor 4) on CHO-K1-RXFP4 cells (UniProt Q8TDU9); assay: cell-based or functional assay
[10] = biological target: RXFP3-NLuc (human RXFP3 with Nanoluciferase on the C-terminus) (human) (UniProt Q9NSD7); assay: cell-based or functional assay
[11] = biological target: RXFP3 (relaxin family peptide receptor 3) on CHO-K1-RXFP3 cells (UniProt Q9NSD7); assay: cell-based or functional assay
[12] = biological target: RXFP4-NLuc (nanoluciferase-tagged RXFP4) (UniProt Q8TDU9); assay: cell-based or functional assay
[13] = biological target: T3, RXFP4 (relaxin family peptide receptor 4) on CHO-K1-RXFP4 cells (UniProt Q8TDU9 1-374, limits assumed); assay: competition with 5 nM Eu-DTPA-R3/I5 on CHO-K1-RXFP4 cells
T3 construct: whole, on cells; also called INSL5 receptor

[14] = biological target: T3, RXFP4 (relaxin family peptide receptor …); assay: cell-based or functional assay
[15] = biological target: T4, RXFP3 (relaxin family peptide receptor 3) on CHO-K1-RXFP3 cells (UniProt Q9NSD7 1-469, limits assumed); assay: cell-based or functional assay
T4 sequence (looked up): T2 sequence (Q9NSD7 1-469)

[16] = biological target: T4, RXFP3 (relaxin family peptide receptor …); assay: competition with Eu-H3B1-22R on CHO-K1-RXFP3 cells
[17] = biological target: T3, RXFP4 (relaxin family peptide receptor …); assay: competition with Eu-R3/I5 on CHO-K1-RXFP4 cells
[18] = biological target: T5, RXFP3 (relaxin family peptide receptor 3) on CHO-K1-RXFP3 cells, Q9NSD7; assay: cell-based or functional assay
T5 chain: T2 sequence (Q9NSD7 1-469)

[19] = biological target: T4, RXFP3 (relaxin family peptide receptor …); assay: cell-based or functional assay; remark: listed apart in the source
[20] = RXFP4, CHO-K1-RXFP4 cells, 5 nM Eu-R3/I5, Table 3

T1 sequence (Q8TDU9 whole entry): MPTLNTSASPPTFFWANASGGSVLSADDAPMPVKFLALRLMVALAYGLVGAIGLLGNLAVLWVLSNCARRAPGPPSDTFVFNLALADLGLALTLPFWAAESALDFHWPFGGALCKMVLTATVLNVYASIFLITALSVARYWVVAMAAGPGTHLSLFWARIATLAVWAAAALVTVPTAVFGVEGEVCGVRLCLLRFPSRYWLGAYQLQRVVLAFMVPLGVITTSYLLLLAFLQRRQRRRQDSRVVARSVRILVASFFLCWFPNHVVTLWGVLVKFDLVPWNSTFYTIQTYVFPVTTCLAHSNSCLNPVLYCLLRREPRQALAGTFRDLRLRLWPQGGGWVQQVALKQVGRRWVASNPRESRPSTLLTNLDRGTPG
T3 sequence (Q8TDU9 whole entry): as above
Chain of RXFP4 (relaxin family peptide receptor 4) on CHO-K1-RXFP4 cells (UniProt Q8TDU9) (Q8TDU9 whole entry): as above
Chain of RXFP4-NLuc (nanoluciferase-tagged RXFP4) (Q8TDU9 whole entry): as above

## CC[C@H](C)[C@H](NC(=O)[C@H](Cc1ccc(O)cc1)NC(=O)[C@@H](NC(=O)[C@@H](NC(=O)[C@](C)(Cc1ccccc1)NC(=O)[C@H](CCCNC(=N)N)NC(=O)[C@@H](NC(=O)[C@H](Cc1ccc(O)cc1)NC(=O)[C@](C)(Cc1ccccc1)NC(=O)[C@H](CC(C)C)NC(=O)CNC(=O)[C@@H](N)CO)[C@@H](C)CC)C(C)C)[C@@H](C)CC)C(=O)N[C@@H](CO)C(=O)NCC(=O)NCC(=O)N[C@@H](CO)C(=O)N[C@@H](CCCNC(=N)N)C(=O)N[C@@H](Cc1c[nH]c2ccccc12)C(=O)O [aF stapled analogue] (H-SGL[αMeF]YIR[αMeF]VIYISGGSRW-OH)
RXFP4 [1]
  Ki: 30.9 nM
RXFP4 [2]; RXFP4, Table 5
  Ki: 158 nM
RXFP4 [3]
  EC50: 87.1 nM

## SGREFIRAVIFTSGGSRW-OH [H3B10-27]
RXFP3 [4]
  EC50: > 10000 nM
RXFP3 [5]
  Ki: > 10000 nM
RXFP4 [2]; [20]
  Ki: > 10000 nM
[6]
  half-life at 400 µg/mL: ~20 min
RXFP4 [3]
  cAMP pEC50: No activity (3)

## R3/I5 (R3/I5 chimeric relaxin peptide, RXFP3 agonist) (ligand)
[7]
  pKi: 7.77
[8]
  pKi: 8.28
[9]
  cAMP pEC50: 8.98
[10]
  RXFP3 pEC50 (β-arrestin2 recruitment, NanoBRET AUC): 7.91
[11]
  cAMP pEC50: 8.89
[12]
  RXFP4 pEC50 (β-arrestin2 recruitment, NanoBRET AUC): 7.56

## CC[C@H](C)[C@H](NC(=O)[C@H](Cc1ccccc1)NC(=O)C(Cc1ccccc1)NC(=O)[C@H](CCCNC(=N)N)NC(=O)CNC(=O)[C@@H](N)CO)C(=O)N[C@@H](CCCNC(=N)N)C(=O)NC(Cc1ccccc1)C(=O)N[C@H](C(=O)N[C@H](C(=O)N[C@@H](Cc1ccccc1)C(=O)N[C@H](C(=O)N[C@@H](CO)C(=O)NCC(=O)NCC(=O)N[C@@H](CO)C(=O)N[C@@H](CCCNC(=N)N)C(=O)N[C@@H](Cc1c[nH]c2ccccc12)C(=O)O)[C@@H](C)O)[C@@H](C)CC)C(C)C (stereo partly drawn) [H3B10-27(13/17F)] (H-SGR[ξF]FIR[ξF]VIFTSGGSRW-OH; N-terminus assumed)
RXFP3 [4]
  EC50: > 10000 nM
RXFP3 [5]
  Ki: > 10000 nM
RXFP4 [2]; [20]
  Eu-R3/I5 pKi: No binding (3)
RXFP4 [3]
  cAMP pEC50: No activity (4)

## CC[C@H](C)[C@H](NC(=O)[C@H](Cc1ccc(O)cc1)NC(=O)[C@@H](NC(=O)[C@@H](NC(=O)[C@](C)(Cc1ccccc1)NC(=O)[C@H](CCCNC(=N)N)NC(=O)[C@@H](NC(=O)[C@H](Cc1ccc(O)cc1)NC(=O)[C@](C)(Cc1ccccc1)NC(=O)[C@H](CC(C)C)NC(=O)CNC(=O)[C@@H](N)CO)[C@@H](C)CC)C(C)C)[C@@H](C)CC)C(=O)N[C@@H](CCC(=O)O)C(=O)NCC(=O)NCC(=O)N[C@@H](CO)C(=O)N[C@@H](CCCNC(=N)N)C(=O)N[C@@H](Cc1c[nH]c2ccccc12)C(=O)O [πI5B7-24-GG-S19E] (H-SGL[αMeF]YIR[αMeF]VIYIEGGSRW-OH; N-terminus and C-terminus assumed)
RXFP4 [1]
  Ki: 7.41 nM
RXFP4 [3]
  EC50: 40.7 nM

B1: Human insulin-like peptide 7 (INSL7), also known as human relaxin-3 (H3 relaxin) (ligand)
chain 1: DVLAGLSSSCCKWGCSKSEISSLC
chain 2: RAAPYGVRLCGREFIRAVIFTCGGSRW
modifications: disulfide I:10-I:15; not fully specified; cysteine pairing not given here
[13]
  pKi: 8.42
[14]
  cAMP pEC50: 8.94

B2: H3B1-22R (Formula XI, known single chain antagonist of RXFP3) (peptide)
peptide: RAAPYGVRLSGREFIRAVIFTSR
notes: 23 residues
[15]
  RXFP3 Antagonist potency pIC50: 6.25
[16]
  pKi: 7.64
[17]
  binding result: no binding

B3: H3B10-27(13/17F) (peptide)
peptide: SGRFFIRFVIFTSGGSRW
modifications: not checked
[18]
  cAMP pEC50: < 5

B4: H3B10-27 (native B10-27) (peptide)
peptide: SGREFIRAVIFTSGGSRW
[19]
  cAMP pEC50: < 5
